Measurements reported in ChEMBL document CHEMBL1201862, “PubChem BioAssay data set” (2004).
Active and inactive are the calls of the source.

What was measured:
[1] = target: T1, Oxysterols receptor LXR-beta (Homo sapiens, UniProt P55055); format: functional, cell-based;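 also: agonist activity at LXR measured by a cell-based luminescence readout across a dose range, run as a counterscreen for daf-12 agonists; HEK293 cells with Gal4-LXR fusion and GAL4-driven luciferase reporter; potency for activation of Gal4-LXR reporter so compounds are agonists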
T1 sequence (P55055 whole entry): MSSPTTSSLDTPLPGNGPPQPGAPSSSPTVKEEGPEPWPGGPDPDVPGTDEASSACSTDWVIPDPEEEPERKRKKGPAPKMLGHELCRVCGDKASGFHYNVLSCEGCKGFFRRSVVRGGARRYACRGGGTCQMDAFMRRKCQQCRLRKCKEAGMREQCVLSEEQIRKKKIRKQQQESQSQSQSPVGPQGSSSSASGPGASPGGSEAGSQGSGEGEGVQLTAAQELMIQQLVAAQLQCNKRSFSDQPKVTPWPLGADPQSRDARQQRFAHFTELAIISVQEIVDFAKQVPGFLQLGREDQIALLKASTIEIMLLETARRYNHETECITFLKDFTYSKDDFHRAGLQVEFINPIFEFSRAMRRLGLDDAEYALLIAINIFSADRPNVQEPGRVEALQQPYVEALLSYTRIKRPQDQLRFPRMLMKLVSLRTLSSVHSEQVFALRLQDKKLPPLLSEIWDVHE

[2] = target: Nonstructural protein 1 (Influenza A virus, UniProt Q194T2); format: functional, Influenza A virus (A/California/07/2009(H1N1))
Chain of Nonstructural protein 1 (Q194T2 whole entry): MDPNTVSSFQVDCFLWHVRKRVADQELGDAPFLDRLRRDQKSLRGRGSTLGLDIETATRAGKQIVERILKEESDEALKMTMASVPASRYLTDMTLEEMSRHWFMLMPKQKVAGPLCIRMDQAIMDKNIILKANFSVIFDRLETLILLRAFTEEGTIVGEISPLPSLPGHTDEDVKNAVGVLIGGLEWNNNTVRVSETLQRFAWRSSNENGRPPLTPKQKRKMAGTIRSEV

[3] = HGIII-sPLA2 enzyme inhibition potency – biochemical, QFRET, IC50, dose response (AID 743457);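 also: green fluorescence rise as the enzyme cleaves BODIPY PC-A2 in liposomes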
[4] = target: T2, Short transient receptor potential channel 4 (Mus musculus, UniProt Q9QUQ5); assay: calcium entry via TRPC4 opening agents – cell-based, HEK293 TRPC4/mu-opioid, Fluo-4 calcium, dose response (AID 434937); format: functional
T2 sequence (Q9QUQ5 whole entry): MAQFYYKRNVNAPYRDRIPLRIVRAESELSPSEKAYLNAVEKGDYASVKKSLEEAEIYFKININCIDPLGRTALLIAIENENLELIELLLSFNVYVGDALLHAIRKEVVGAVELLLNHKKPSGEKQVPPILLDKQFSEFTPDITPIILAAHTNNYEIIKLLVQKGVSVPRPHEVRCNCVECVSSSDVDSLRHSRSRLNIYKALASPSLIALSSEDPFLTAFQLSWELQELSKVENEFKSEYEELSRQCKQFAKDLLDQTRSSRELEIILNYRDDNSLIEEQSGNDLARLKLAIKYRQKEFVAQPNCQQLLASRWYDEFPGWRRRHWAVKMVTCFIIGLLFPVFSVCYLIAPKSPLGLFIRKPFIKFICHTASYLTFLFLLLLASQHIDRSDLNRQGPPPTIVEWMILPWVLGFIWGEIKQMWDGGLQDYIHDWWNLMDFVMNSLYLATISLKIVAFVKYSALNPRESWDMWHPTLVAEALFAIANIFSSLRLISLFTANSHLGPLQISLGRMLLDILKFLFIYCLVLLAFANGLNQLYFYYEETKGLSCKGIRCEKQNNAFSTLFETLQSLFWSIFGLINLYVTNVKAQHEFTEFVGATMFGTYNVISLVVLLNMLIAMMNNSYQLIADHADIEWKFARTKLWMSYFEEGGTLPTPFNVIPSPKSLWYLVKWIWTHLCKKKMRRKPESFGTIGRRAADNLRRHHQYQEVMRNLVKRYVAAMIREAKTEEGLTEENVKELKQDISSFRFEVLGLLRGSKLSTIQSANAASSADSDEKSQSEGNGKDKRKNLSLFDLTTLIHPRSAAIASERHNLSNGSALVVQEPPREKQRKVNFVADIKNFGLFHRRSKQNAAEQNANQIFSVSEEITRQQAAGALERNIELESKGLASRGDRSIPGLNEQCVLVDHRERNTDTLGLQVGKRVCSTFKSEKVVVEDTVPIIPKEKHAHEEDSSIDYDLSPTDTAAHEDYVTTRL

[5] = target: T3, fMet-Leu-Phe receptor (Homo sapiens, UniProt P21462); assay: formyl peptide receptor binders – dose response (AID 519); format: functional
T3 sequence (P21462 whole entry): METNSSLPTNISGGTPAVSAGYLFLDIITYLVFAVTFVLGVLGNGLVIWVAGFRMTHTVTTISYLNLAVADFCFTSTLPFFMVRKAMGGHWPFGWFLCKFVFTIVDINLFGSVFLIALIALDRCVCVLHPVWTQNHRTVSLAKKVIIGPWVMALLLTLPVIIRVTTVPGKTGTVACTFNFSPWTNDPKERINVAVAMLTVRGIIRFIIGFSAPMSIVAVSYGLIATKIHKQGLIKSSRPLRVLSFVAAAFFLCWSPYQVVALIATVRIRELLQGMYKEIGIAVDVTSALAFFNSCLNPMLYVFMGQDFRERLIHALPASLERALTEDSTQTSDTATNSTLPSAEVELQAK

[6] = target: T4, Rac GTPase-activating protein 1 (Homo sapiens, UniProt Q9H0H5); assay: blockers of MgcRacGAP-driven Rac1 GTP hydrolysis – biochemical, ADP Hunter fluorescence, primary and confirmatory, confirmation (AID 624330); format: functional
T4 sequence (Q9H0H5 whole entry): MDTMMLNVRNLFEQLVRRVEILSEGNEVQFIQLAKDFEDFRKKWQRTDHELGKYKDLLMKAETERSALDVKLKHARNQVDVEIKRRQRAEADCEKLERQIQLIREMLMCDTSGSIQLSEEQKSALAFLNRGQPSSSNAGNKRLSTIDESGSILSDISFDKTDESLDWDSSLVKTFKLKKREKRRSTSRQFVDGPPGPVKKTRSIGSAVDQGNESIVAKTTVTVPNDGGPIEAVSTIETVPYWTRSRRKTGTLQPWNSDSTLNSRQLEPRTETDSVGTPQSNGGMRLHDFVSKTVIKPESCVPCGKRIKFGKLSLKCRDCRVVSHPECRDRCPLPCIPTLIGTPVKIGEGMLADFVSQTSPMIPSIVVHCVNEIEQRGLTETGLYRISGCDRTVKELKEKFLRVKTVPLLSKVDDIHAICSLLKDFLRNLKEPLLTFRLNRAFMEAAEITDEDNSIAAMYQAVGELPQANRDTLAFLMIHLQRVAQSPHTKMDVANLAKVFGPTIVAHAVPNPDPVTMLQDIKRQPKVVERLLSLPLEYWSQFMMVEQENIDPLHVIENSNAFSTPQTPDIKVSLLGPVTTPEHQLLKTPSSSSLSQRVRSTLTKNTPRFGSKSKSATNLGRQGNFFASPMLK

[7] = Luminescence Cell-Based Dose Confirmation HTS to Identify Inhibitors of Platelet Dense Granule Release. [Related pubchem assays: 1663 (Primary HTS), 1678 (Summary of Project)]; format: functional
[8] = target: Luciferin 4-monooxygenase (Photinus pyralis, UniProt P08659); assay: inhibition of purified Photinus pyralis luciferase – biochemical, luminescence, dose response (AID 1891)
Chain of Luciferin 4-monooxygenase (P08659 whole entry): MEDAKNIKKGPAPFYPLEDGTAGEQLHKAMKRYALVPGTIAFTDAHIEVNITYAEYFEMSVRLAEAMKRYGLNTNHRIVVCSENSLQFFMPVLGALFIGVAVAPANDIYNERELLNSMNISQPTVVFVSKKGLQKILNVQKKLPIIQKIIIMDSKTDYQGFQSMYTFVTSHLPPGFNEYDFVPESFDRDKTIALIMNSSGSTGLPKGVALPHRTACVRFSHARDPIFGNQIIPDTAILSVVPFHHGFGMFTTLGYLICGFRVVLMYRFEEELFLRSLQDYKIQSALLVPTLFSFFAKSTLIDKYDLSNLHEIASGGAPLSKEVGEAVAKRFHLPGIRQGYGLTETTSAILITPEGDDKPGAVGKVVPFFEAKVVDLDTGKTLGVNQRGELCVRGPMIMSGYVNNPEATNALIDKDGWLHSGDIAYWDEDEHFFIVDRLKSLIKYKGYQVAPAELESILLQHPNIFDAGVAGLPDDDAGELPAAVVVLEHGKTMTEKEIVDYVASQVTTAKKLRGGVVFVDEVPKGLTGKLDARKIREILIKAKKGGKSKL

[9] = viability loss in MITF-independent A375 cells – cell-based, CellTiter-Glo luminescence, dry powder, set 2, counter-screen for MITF inhibitor project, dose response (AID 624489); format: functional; details: A-375;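 also: actives are compounds lowering A375 viability meaning general cytotoxicity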
[10] = cytotoxicity in MITF-independent A375 cells – cell-based, CellTiter-Glo luminescence, dry powder, set 4, counter-screen for MITF inhibitor project, dose response (AID 624364); format: functional; details: A-375;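 also: A375 melanoma cells are MITF independent so this is a counter screen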
[11] = P. falciparum Dd2 growth inhibitors, dose response, SYBR Green, cherry-picked samples (AID 1159567); format: functional, cell-based
[12] = toxicity to human hepatoma HepG2 cells – cell-based, cherry-picked samples, cytotoxicity control, dose response (AID 1159577); format: functional
[13] = Dd2 malaria parasite growth inhibition potency – SYBR Green, dry powder samples, dose response (AID 1159566); format: functional, cell-based;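 also: potency for growth inhibition with lower SYBR green DNA signal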
[14] = growth inhibition of yeast DHODH-expressing 3D7 parasites – SYBR Green, dry powder samples, dose response (AID 1159570); format: functional, cell-based;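 also: parasite growth measured after 72 hours of compound exposure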
[15] = growth inhibition of PfATP4-mutant resistant parasites – NITD609-resistant line, SYBR Green, dry powder, dose response (AID 1159571); format: functional, cell-based;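 also: parasites synchronized at ring stage by sorbitol before testing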
[16] = target: T5, DNA repair protein RAD52 homolog (Homo sapiens, UniProt P43351); format: functional, biochemical
T5 sequence (P43351 whole entry): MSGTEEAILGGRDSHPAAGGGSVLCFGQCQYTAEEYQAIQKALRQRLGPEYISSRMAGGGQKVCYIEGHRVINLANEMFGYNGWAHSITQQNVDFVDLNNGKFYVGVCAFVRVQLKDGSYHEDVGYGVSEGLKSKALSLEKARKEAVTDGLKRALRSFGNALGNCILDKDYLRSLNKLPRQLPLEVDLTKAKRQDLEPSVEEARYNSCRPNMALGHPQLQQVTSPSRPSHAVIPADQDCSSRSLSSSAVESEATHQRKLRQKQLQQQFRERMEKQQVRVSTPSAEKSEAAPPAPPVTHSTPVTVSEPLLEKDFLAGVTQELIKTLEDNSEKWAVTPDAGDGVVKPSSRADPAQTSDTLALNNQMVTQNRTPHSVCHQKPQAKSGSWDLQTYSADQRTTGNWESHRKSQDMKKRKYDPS

[17] = target: T6, DNA repair and recombination protein RAD54-like (Homo sapiens, UniProt Q92698); assay: RAD54 Holliday junction migration blockers – biochemical, fluorescence, cherry-picked samples, dose series, confirmation (AID 651657); format: functional
T6 sequence (Q92698 whole entry): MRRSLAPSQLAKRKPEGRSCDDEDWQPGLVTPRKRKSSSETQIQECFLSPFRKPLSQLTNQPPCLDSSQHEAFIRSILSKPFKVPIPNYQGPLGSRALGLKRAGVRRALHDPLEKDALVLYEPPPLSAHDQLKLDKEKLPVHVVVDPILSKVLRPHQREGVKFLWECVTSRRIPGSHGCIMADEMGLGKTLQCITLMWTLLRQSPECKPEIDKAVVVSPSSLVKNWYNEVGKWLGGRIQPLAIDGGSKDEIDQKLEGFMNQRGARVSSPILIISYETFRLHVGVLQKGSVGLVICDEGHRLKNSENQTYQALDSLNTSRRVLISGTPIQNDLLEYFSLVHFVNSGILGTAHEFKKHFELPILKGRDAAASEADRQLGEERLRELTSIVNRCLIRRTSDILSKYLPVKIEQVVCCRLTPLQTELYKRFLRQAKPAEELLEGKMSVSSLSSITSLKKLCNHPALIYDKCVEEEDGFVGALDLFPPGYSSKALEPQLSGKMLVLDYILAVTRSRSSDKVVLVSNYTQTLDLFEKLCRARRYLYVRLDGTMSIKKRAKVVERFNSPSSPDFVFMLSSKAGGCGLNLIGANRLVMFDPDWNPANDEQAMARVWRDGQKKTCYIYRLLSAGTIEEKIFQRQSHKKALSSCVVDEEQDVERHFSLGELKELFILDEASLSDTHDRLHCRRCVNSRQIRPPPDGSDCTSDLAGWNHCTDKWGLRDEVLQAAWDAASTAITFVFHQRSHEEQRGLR

[18] = Vero E6 cell cytotoxicity, dose response, cytotoxicity control for non-replicating M. tuberculosis project, secondary assay (AID 492998); format: functional, VeroE6; details: Vero C1008
[19] = target: Mu-type opioid receptor (Homo sapiens, UniProt P35372); format: functional, cell-based;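 also: U2OS cells with beta-arrestin recruitment to OPRM1 by beta-gal complementation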
Chain of Mu-type opioid receptor (P35372 whole entry): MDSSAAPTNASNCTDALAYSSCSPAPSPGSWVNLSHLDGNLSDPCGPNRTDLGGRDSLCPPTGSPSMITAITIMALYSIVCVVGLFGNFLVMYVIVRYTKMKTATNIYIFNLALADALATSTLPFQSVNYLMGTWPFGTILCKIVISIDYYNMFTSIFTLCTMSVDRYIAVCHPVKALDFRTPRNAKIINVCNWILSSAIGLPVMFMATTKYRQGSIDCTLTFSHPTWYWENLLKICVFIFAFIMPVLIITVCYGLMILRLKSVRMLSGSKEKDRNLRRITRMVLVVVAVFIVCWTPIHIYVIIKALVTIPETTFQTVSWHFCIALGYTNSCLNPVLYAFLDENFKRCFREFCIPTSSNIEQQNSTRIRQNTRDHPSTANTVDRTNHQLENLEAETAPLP

[20] = cells; format: functional
[21] = target: 5-hydroxytryptamine receptor 2A (Mus musculus, UniProt P35363); format: functional, cell-based;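 also: CHO-K1 cells with tagged receptor and beta-arrestin; agonist potency measured as compound-induced activation of the receptor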
Chain of 5-hydroxytryptamine receptor 2A (P35363 whole entry): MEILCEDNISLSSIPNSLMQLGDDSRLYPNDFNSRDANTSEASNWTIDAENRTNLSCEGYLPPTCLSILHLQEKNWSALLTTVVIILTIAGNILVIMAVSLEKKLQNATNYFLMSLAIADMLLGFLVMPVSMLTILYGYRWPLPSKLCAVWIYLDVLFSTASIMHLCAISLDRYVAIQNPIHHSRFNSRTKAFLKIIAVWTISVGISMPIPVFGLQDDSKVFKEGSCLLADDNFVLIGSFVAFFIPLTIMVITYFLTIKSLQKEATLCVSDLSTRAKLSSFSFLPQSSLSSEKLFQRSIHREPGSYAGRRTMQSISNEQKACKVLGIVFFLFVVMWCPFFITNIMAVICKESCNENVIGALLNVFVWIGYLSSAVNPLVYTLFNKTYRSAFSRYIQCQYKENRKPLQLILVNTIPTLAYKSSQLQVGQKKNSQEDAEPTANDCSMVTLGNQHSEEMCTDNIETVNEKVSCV

[22] = THP-1 cell cytotoxicity, dose response, cytotoxicity control for non-replicating M. tuberculosis project (AID 489025); format: functional
[23] = microbe, parasite or virus in culture; format: functional; details: Mycobacterium tuberculosis
[24] = Luminescence Cell-Based Dose Retest to Confirm Inhibitors of Cancer Stem Cells. [Related pubchem assays (depositor defined):AID2717, AID2721]; format: functional; details: Homo sapiens
[25] = cytotoxicity toward MDA-MB-231 breast cancer cells – cell-based, CellTiter-Glo luminescence, cherry-pick, cytotoxicity control for RAD54 inhibitor project, dose response (AID 651692); format: functional
[26] = HepG2 cell cytotoxicity, dose response, cytotoxicity control for non-replicating M. tuberculosis project (AID 489018); format: functional; details: Mycobacterium tuberculosis

## Clc1ccccc1Nc1nc2ccccc2o1
[1]
  EC50: > 67.6 µM (inactive)

## c1ccc(CSc2ccc(-c3ccccn3)nn2)nc1
[1]
  EC50: > 67.5 µM (inactive)
[2]
  IC50: 4.94 µM (active)

## COc1ccc(C(=O)NC(=S)NNC(=O)c2c(-c3ccccc3)noc2C)cc1
[3]
  IC50: 24.2 µM (inactive)
[4]
  EC50: 3.76 µM (active)

## Cc1ccc(C2C(C(=O)c3cnn(-c4ccccc4)c3C)=C(O)C(=O)N2CCN2CCOCC2)o1 (stereo not given)
[5]
  Ki: 23.2 µM (inactive)

## CC(=O)OCCNc1cc(N2CCN(C)CC2)c2noc3c2c1C(=O)c1ccccc1-3
[5]
  Ki: > 66.7 µM (inactive)
[2]
  IC50: 24.1 µM (active)
[6]
  IC50: 117 µM (active)

## O=C(Cn1cnc2c(cnn2-c2ccc(F)cc2)c1=O)OCc1ccccc1
[5]
  Ki: > 66.7 µM (inactive)
[7]
  EC50: > 112 µM (not active)
[8]
  EC50: > 112 µM (not active)

## O=C(NC1=C(N2CCSCC2)C(=O)c2ccccc2C1=O)c1ccc(Br)cc1
[9]
  AC50: 49.9 µM (active)
[10]
  AC50: > 70 µM (inactive)

## O=C1C(NS(=O)(=O)c2ccc(Br)cc2)=C(c2ccccc2)C(=O)c2ccccc21
[9]
  AC50: > 70 µM (inactive)
[10]
  AC50: > 70 µM (inactive)

## C=CCNC1=C(Nc2ccccc2)C(=O)c2ccccc2C1=O
[9]
  AC50: > 70 µM (inactive)
[10]
  AC50: > 70 µM (inactive)

## C[C@@H]1CN([C@@H](C)CO)C(=O)c2c(c3ccccc3n2C)-c2ccccc2CO[C@@H]1CN(C)Cc1ccccc1C(F)(F)F
[11]
  AC50: 1.47 µM (active)
[12]
  AC50: 8.34 µM (active)

## N#C[C@@H]1[C@H](c2ccccc2C2=CCCCC2)[C@@H](CO)N1C(=O)c1cccc(F)c1
[11]
  AC50: 2.74 µM (active)
[13]
  AC50: 1.93 µM (active)
[14]
  AC50: 2.12 µM (active)
[15]
  AC50: 7.9 µM (active)

## CCCN(CCC)CCNC(=O)c1cc2c(-c3ccc(Cl)cc3)nn(C)c2s1
[16]
  AC50: 14.5 µM (active)
[17]
  AC50: 20.9 µM (active)
[18]
  CC50: 16.6 µM (active)
[19]
  EC50: 92.5 µM (inactive)
[20]
  IC50: 15.5 µM (active)
[21]
  EC50: 6.58 µM (active)
[22]
  CC50: 31.6 µM (active)
[23]
  CC50: 15.1 µM (active)
[24]
  AC50: 3.81 µM (active)
[25]
  AC50: 37.1 µM (active)
[26]
  CC50: 11.8 µM (active)
